Target: T1, 5-HT₃ receptor (Rattus norvegicus, UniProt P35563)
T1 construct: from tissue
T1 sequence (P35563 24-483): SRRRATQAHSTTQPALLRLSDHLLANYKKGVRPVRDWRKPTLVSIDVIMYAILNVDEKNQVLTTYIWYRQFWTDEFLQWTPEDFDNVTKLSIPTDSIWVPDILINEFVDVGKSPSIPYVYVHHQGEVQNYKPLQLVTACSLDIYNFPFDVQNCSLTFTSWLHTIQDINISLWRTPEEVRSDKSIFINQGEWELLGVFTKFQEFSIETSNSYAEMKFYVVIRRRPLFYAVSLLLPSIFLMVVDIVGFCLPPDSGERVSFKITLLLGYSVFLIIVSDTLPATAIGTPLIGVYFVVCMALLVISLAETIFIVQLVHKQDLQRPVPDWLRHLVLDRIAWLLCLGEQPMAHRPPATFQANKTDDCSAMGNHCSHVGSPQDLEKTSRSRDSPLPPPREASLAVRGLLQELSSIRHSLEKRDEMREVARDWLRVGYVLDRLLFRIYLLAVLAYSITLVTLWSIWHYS
Test: Inhibition of serotonin-induced Von Bezold-Jarisch reflex in rats
Type: in vivo
Details: 15 minutes prior to 5-HT; for inhibition at 0.01 mg/kg / inhibition at 0.001 mg/kg / inhibition at 0.003 mg/kg / inhibition at 0.03 mg/kg: rat, iv, read-out: Percent Inhibition of Reflex in Rats; for inhibition at 0.001 mg/kg: 0.001 mg/kg I.V.; for inhibition at 0.03 mg/kg: 0.03 mg/kg I.V.
Description: The compounds of Formula I of this invention are long-acting, orally effective specific 5-HT₃ receptor antagonists, rendering them useful for the treatment of migraine. Because of this mechanism, the compounds of this invention should also be useful for treating emesis, motion sickness, ischemic bowel disease, diabetic gastric paresis, relaxation of the gastro-intestinal tract for instrumentation, other gastro-intestinal pain following surgery, obstetrics or as in abdominal cramps, and for treating CNS disorders such as schizophrenia and anxiety. The ability of these compounds to antagonize the effects of 5-HT was assessed by their inhibition of the Von Bezold-Jarisch reflex induced by 5-HT injected intravenously into the rat (See Paintal, Physiol. Rev., 53, 159 (1973)). When administered by the intravenous route 15 minutes prior to the administration of 5-HT, the compounds of this invention were effective in inhibiting the serotonin-induced Bezold-Jarisch reflex as summarized in Table 1 below: Table 1

inhibition at 0.01 mg/kg (0.01 mg/kg I.V.) [%]	inhibition at 0.003 mg/kg (0.003 mg/kg I.V.) [%]	SMILES	other results
20		COc1cc2c(c(C(=O)N[C@H]3C[C@H]4CC[C@@H](C3)N4C)c1)OC(C)C2 (mixture of isomers) [Example 27, dl-endo-2,3-dihydro-5-methoxy-2-methyl-N-(8-methyl-8-azabicyclo[3.2.1]oct-3-yl)-7-benzofurancarboxamide (Z)-2-butenedioate]	
80	80	CC1Cc2cc(Cl)cc(C(=O)N[C@H]3C[C@H]4CC[C@@H](C3)N4C)c2O1 (mixture of isomers) [Example 32, dl-endo-5-chloro-2,3-dihydro-2-methyl-N-(8-methyl-8-azabicyclo[3.2.1]oct-3-yl)-7-benzofurancarboxamide (Z)-2-butenedioate]	inhibition at 0.001 mg/kg: 58%
22		CC1Cc2cccc(C(=O)N[C@H]3C[C@H]4CC[C@@H](C3)N4C)c2O1 (mixture of isomers) [Example 33, dl-endo-2,3-dihydro-2-methyl-N-(8-methyl-8-azabicyclo[3.2.1]oct-3-yl)-7-benzofurancarboxamide (Z)-2-butenedioate]	inhibition at 0.03 mg/kg: 57%
26		CC1Cc2cccc(C(=O)N[C@@H]3C[C@H]4CC[C@@H](C3)N4C)c2O1 (mixture of isomers) [Example 38, dl-exo-2,3-dihydro-2-methyl-N-(8-methyl-8-azabicyclo[3.2.1]oct-3-yl)-7-benzofurancarboxamide (Z)-2-butenedioate]	inhibition at 0.03 mg/kg: 51%
0.1		CN1[C@@H]2CC[C@H]1C[C@@H](NC(=O)c1cccc3c1SC(C)(C)C3)C2 [Example 16, Endo-2,3-dihydro-2,2-dimethyl-N-(8-methyl-8-azabicyclo[3.2.1]oct-3-yl)benzo[b]thiophene-7-carboxamide (Z)-2-butenedioate]	
53	-2	CN1[C@@H]2CC[C@H]1C[C@@H](NC(=O)c1cccc3c1OC(C)(C)C3)C2 [Example 17, Endo-2,3-dihydro-2,2-dimethyl-N-(8-methyl-8-azabicyclo[3.2.1]oct-3-yl)-7-benzofurancarboxamide (Z)-2-butenedioate]	inhibition at 0.03 mg/kg: 82%
1.2		CN1[C@@H]2CC[C@H]1C[C@@H](NC(=O)c1ccc(Cl)c3c1OC(C)(C)C3)C2 [Example 18, Endo-4-chloro-2,3-dihydro-2,2-dimethyl-N-(8-methyl-8-azabicyclo[3.2.1]oct-3-yl)-7-benzofurancarboxamide (Z)-2-butenedioate]	
16		CN1[C@@H]2CC[C@H]1C[C@@H](NC(=O)c1ccc3c(c1)CC(C)(C)O3)C2 [Example 20, Endo-2,3-dihydro-2,2-dimethyl-N-(8-methyl-8-azabicyclo[3.2.1]oct-3-yl)-5-benzofurancarboxamide (Z)-2-butenedioate]	
87	11	Cc1cc2c(c(C(=O)N[C@H]3C[C@H]4CC[C@@H](C3)N4C)c1)OC(C)(C)C2 [Example 21, Endo-2,3-dihydro-2,2,5-trimethyl-N-(8-methyl-8-azabicyclo[3.2.1]oct-3-yl)-7-benzofurancarboxamide (Z)-2-butenedioate]	inhibition at 0.001 mg/kg: 0.3%
-4		CN1[C@@H]2CC[C@H]1C[C@@H](NC(=O)c1cccc3c1CC(C)(C)O3)C2 [Example 22, Endo-2,3-dihydro-2,2-dimethyl-N-(8-methyl-8-azabicyclo[3.2.1]oct-3-yl)-4-benzofurancarboxamide (Z)-2-butenedioate]	
-8		CN1[C@@H]2CC[C@H]1C[C@@H](NC(=O)c1ccc3c(c1)OC(C)(C)C3)C2 [Example 23, Endo-2,3-dihydro-2,2-dimethyl-N-(8-methyl-8-azabicyclo[3.2.1]oct-3-yl)-6-benzofurancarboxamide (Z)-2-butenedioate]	
38	21	CN1[C@@H]2CC[C@H]1C[C@@H](OC(=O)c1cccc3c1OC(C)(C)C3)C2 [Example 24, Endo-2,3-dihydro-2,2-dimethyl-7-benzofurancarboxylic acid, 8-methyl-8-azabicyclo[3.2.1]oct-3-yl ester (Z)-2-butenedioate]	
76		CN1[C@@H]2CC[C@H]1C[C@@H](NC(=O)c1cccc3c1OC(C)(C)CC3)C2 [Example 36, Endo-2,2-dimethyl-N-(8-methyl-8-azabicyclo[3.2.1]oct-3-yl)-8-chromancarboxamide (Z)-2-butenedioate]	inhibition at 0.001 mg/kg: 4%
53	-2	CN1[C@@H]2CC[C@H]1C[C@H](NC(=O)c1cccc3c1OC(C)(C)C3)C2 [Example 39, Exo-2,3-dihydro-2,2-dimethyl-N-(8-methyl-8-azabicyclo[3.2.1]oct-3-yl)-7-benzofurancarboxamide (Z)-2-butenedioate]	inhibition at 0.03 mg/kg: 82%

Second part, the compound before the results:

SMILES	inhibition at 0.01 mg/kg (0.01 mg/kg I.V.) [%]	inhibition at 0.003 mg/kg (0.003 mg/kg I.V.) [%]	other results
COc1cc2c(c(C(=O)O[C@H]3C[C@H]4CC[C@@H](C3)N4C)c1)OC(C)C2 (mixture of isomers) [Example 28, dl-endo-2-methyl-5-methoxy-2,3-dihydro-7-benzofurancarboxylic acid, 8-methyl-8-azabicyclo[3.2.1]-oct-3-yl ester (Z)-2-butenedioate]	4		
CC1Cc2cc(F)cc(C(=O)O[C@H]3C[C@H]4CC[C@@H](C3)N4C)c2O1 (mixture of isomers) [Example 31, dl-endo-5-fluoro-2,3-dihydro-2-methyl-7-benzofurancarboxylic acid, 8-methyl-8-azabicyclo[3.2.1]oct-3-yl ester (Z)-2-butenedioate]	32		
CC1Cc2cc(Cl)cc(C(=O)O[C@H]3C[C@H]4CC[C@@H](C3)N4C)c2O1 (mixture of isomers) [Example 34, dl-endo-5-chloro-2,3-dihydro-2-methyl-7-benzofurancarboxylic acid, 8-methyl-8-azabicyclo[3.2.1]oct-3-yl ester (Z)-2-butenedioate]	69	51	inhibition at 0.001 mg/kg: 6%
CC1Cc2cccc(C(=O)O[C@H]3C[C@H]4CC[C@@H](C3)N4C)c2O1 (mixture of isomers) [Example 35, dl-endo-2,3-dihydro-2-methyl-7-benzofurancarboxylic acid, 8-methyl-8-azabicyclo[3.2.1]oct-3-yl ester (Z)-2-butenedioate]	31		
Cc1cc2c(c(C(=O)O[C@H]3C[C@H]4CC[C@@H](C3)N4C)c1)OC(C)C2 (mixture of isomers) [Example 40, dl-endo-2,3-dihydro-2,5-dimethyl-7-benzofurancarboxylic acid, 8-methyl-8-azabicyclo[3.2.1]oct-3-yl ester (Z)-2-butenedioate]	67	14	inhibition at 0.001 mg/kg: 3%
CN1[C@@H]2CC[C@H]1C[C@@H](OC(=O)c1cc(Cl)cc3c1OC(C)(C)C3)C2 [Example 25, Endo-5-chloro-2,3-dihydro-2,2-dimethyl-7-benzofurancarboxylic acid, 8-methyl-8-azabicyclo[3.2.1]oct-3-yl ester (Z)-2-butenedioate]	83	19	inhibition at 0.001 mg/kg: 10%
CN1[C@@H]2CC[C@H]1C[C@H](OC(=O)c1cc(Cl)cc3c1OC(C)(C)C3)C2 [Example 26, Exo-2,2-dimethyl-5-chloro-2,3-dihydro-7-benzofurancarboxylic acid, 8-methyl-8-azabicyclo[3.2.1]oct-3-yl ester (Z)-2-butenedioate]	2		
CN1[C@@H]2CC[C@H]1C[C@@H](OC(=O)c1cc(Cl)c3c(c1)CC(C)(C)O3)C2 [Example 29, Endo-2,2-dimethyl-7-chloro-2,3-dihydro-5-benzofurancarboxylic acid, 8-methyl-8-azabicyclo[3.2.1]oct-3-yl ester (Z)-2-butenedioate]	-4		
CN1C2CCC1CC(NC(=O)c1cc(Cl)cc3c1OC(C)(C)C3)C2.O=C(O)/C=C\C(=O)O (stereo not drawn) [Example 30, Exo-2,2-dimethyl-5-chloro-2,3-dihydro-N-(8-methyl-8-azabicyclo[3.2.1]oct-3-yl)-7-benzofurancarboxamide (Z)-2-butenedioate]			Percent Inhibition of Reflex in Rats (0.003 mg/kg I.V.): 26%; Percent Inhibition of Reflex in Rats (0.01 mg/kg I.V.): 67%
Cc1cc2c(c(C(=O)O[C@H]3C[C@H]4CC[C@@H](C3)N4C)c1)OC(C)(C)C2 [Example 37, Endo-2,3-dihydro-2,2,5-trimethyl-7-benzofurancarboxylic acid, 8-methyl-8-azabicyclo[3.2.1]oct-3-yl ester (Z)-2-butenedioate]	4		
